Data: patent US20250161287A1, “METHODS, COMPOSITIONS, AND COMBINATIONS FOR PREVENTING OR TREATING CANCER RECURRENCE” (VUJA DE SCIENCES, INC., priority 2022, published 2025)
“Also recorded” adds a separate entry of the source. Where two headings read alike, the source gives them in different places.

Tests used:
MG63.3 OS cell line [1] = assay: in vitro 3D BME assay with MG63.3 OS cell line; assay type: cell-based, human; settings: for activity on 3D BME compared with 2D: MG63.3, 3D BME vs 2D MTT 72 h
Source text: (§1) 3D basement membrane extract (BME) assay was developed at the NCI Barkan (D. Barkan et al. 2008; Dalit Barkan and Green 2011; Hen and Barkan 2020). BME is purified from Engelbreth-Holm-Swarm (EHS) tumor, primarily made up of laminin, collagen IV, entactin, and heparin sulfate proteoglycans (Cultrex Reduced Growth Factor Basement Membrane Extract, PathClear n.d.), which allows it to more accurately reflect the 3D extracellular environment in the body.
(§2) Initially >150 selected therapeutic agents were tested on BME based on the likelihood for either a positive effect or a […] negative effect (as negative controls). […] These therapeutic agents were also tested in dose response (as broad as 1 pM-100 μM) for 2D cytotoxicity (MTT) and the IC50 was calculated. Where required, the hits from the initial screen were also further characterized at additional doses <100 nM in order to further determine the relative selectivity compared to the 2D IC50.
(§3) The influence of drug exposure on the metastatic phenotype was assessed in an in vitro assay of ME and escape from dormancy using a 3D BME assay as previously reported, which was adapted for use with OS cells.
(§4) Cultrex® PathClear, Reduced Growth Factor Basement Membrane Extract (BME—Bio-Techne, Minneapolis, MN) was added ([…]) to a 96-well plate and allowed to gel by incubating at 37° C. for ≥30 min. Cells were harvested, washed with DMEM (no glucose, no FBS, Gibco, Grand Island, NY) and centrifuged at 1500 g×5 mins. The media was aspirated and the remaining cell pellet flicked for about 10 s to ensure disaggregation.
(§5) Cells were diluted in assay media containing 2% BME, resuspended vigorously and 150 μL of the cell suspension was added on top of the gelled 3D BME layer. […] Cell numbers were determined in control vehicle (cells in media+0.1% DMSO), or treated wells and were measured on the indicated days by addition of 20 μL/well of MTS reagent (Cell Titer 96 Aqueous One, Promega, Madison, WI), followed by incubation at 37° C. for 2 h and absorbance measurements at 490 nm via plate reader (Molecular Devices, San Jose CA).
(§6) All conditions were conducted in quadruplicate and each experiment was carried out at least 3 separate times. All comparisons were made between treatment and vehicle control at concordant time points. Statistical analyses and non-linear regressions were derived using GraphPad Prism statistical software.

MG63.3 OS cell line [2] = assay: 2D growth / cytotoxicity by MTT, MG63.3; settings: for doses exhibiting cytotoxicity on 2D growth: 72 h
Experimental: The number of viable cells present in 2D culture was determined by MTT as previously reported. Briefly, cells were plated in 96-well plates at 2,000 cells/well and incubated at 37° C. for 24 h. After 24 h, the media was replaced with fresh media containing drugs at the desired concentrations (10 pM-10 μM) and incubated at 37° C. for 72 h. After 72 h, MTT reagent (20 L/well of a 5 mg/mL stock solution in sterile water; Sigma, St. Louis, MO) was added to each well and the plate was incubated at 37° C. for 2 h. DMSO ([…]) was then added to each well to solubilize the formazan crystals.
(§7) The resulting absorbance was measured at 490 nm via plate reader (Molecular Devices, San Jose, CA). DMSO (0.1%) was used as vehicle control, while 20 μM rapamycin was used as a positive cell-kill control. The experimental conditions were conducted in triplicate and each experiment was repeated three times. Regression lines and IC50's were calculated using a four-parameter variable slope nonlinear fit in GraphPad Prism.

MG63.3 human OS cells = assay: PuMA (ex vivo Pulmonary Metastasis Assay) with MG63.3; assay type: cell-based; settings: single agents, two doses: 100 nM and 1 μM (rapamycin 100 nM and 1 pM [sic]; AZD8055 10 and 100 nM), replicates=3-5
Experimental: FIG. 23A is a schematic illustrating the metastatic progression of GFP-expressing OS cells conducted by injecting single cells via tail vein injection, followed by lung excision and insufflation 15 mins post-injection. The formation of multicellular colonies in the mouse lung microenvironment can be assessed 14-21 days post-injection.
Dissected lungs are then sectioned and grown on sponges.

MG63.3 OS cells = assay: in vitro SISGel assay with highly metastatic MG63.3 OS cells; assay type: cell-based, human; settings: MG63.3 on SISGel, vs vehicle control, replicates=4
Source text: SISGel is comprised of porcine small intestine submucosa gel that was originally developed at Oklahoma State U., by R. Hurst (CSO) and M. Ihnat (Consultant) (Bailey-Downs et al. 2014; Hurst et al. 2013, 2015, 2016). Unlike BME which is derived from a tumor-based matrix, SISGel is derived from healthy stroma and provides a suppressive “normal” ECM. […] Conditions have been identified that promoted suppressed ME-type profile (FIG. 2A). […] In addition to SISGel's complementarity to the BME assay, it can also be conducted in a 96-well format, enabling a high-throughput system to model suppressed/dormant cancer cells to further validate the screening results in BME.

K7M2 OS cell line [3] = assay: 2D growth / cytotoxicity by MTT, K7M2; assay type: cell-based, mouse; settings: for non-cytotoxic drug exposures in 2D: K7M2, MTT 72 h, 10 pM-100 μM
Experimental: The number of viable cells present in 2D culture was determined by MTT as previously reported. Briefly, cells were plated in 96-well plates at 2,000 cells/well and incubated at 37° C. for 24 h. […] After 72 h, MTT reagent (20 L/well of a 5 mg/mL stock solution in sterile water; Sigma, St. Louis, MO) was added to each well and the plate was incubated at 37° C. for 2 h. DMSO ([…]) was then added to each well to solubilize the formazan crystals.
as §7

[4] = given alone at 2 mg/day, cited from earlier work
K7M2 OS cell line [5] = assay: in vitro 3D BME assay with K7M2 OS cell line; assay type: cell-based, mouse
Source text: as §1, §2, §3, §4, §5, §6

[6] = Homo sapiens, MG-63.3, MG63.3 on 3D BME, vs vehicle control, replicates=4, read-out: lowest dose leading to appreciable inhibition of 3D growth
[7] = MG63.3 on 3D BME, vs vehicle control, replicates=4
[8] = MG63.3 on 3D BME, vs vehicle control, replicates=4, read-out: lowest dose leading to appreciable inhibition of 3D growth

COc1ccc(-c2ccc3c(N4CCOC[C@@H]4C)nc(N4CCOC[C@@H]4C)nc3n2)cc1CO [AZD8055]
minimal effective concentration (MG63.3 OS cell line [1]; [6]): 0.1 µM
activity on 3D BME compared with 2D (MG63.3 OS cell line [1]): much stronger activity on 3D BME at slightly lower doses
doses exhibiting cytotoxicity on 2D growth (MG63.3 OS cell line [2]; human): > 100 nM
inhibition of ME (loss of GFP signal in the lung tissue) (MG63.3 human OS cells): strong inhibition of ME

O=C(NC[C@H](O)CO)c1ccncc1Nc1ccc(I)cc1F [pimasertib]
lowest dose leading to complete inhibition of 3D growth (MG63.3 OS cell line [1]; [7]): 100 nM
doses exhibiting cytotoxicity on 2D growth (MG63.3 OS cell line [2]; human): above 1 nM

Cn1cc(CNCC2CCN(c3ncc(C(=O)NO)cn3)CC2)c2ccccc21 [quisinostat]
minimal effective concentration (MG63.3 OS cell line [1]; [6]): 0.01 µM
activity on 3D BME compared with 2D (MG63.3 OS cell line [1]): more active in 3D than in 2D
3D activity and selectivity for ME in a screen of 10 HDAC inhibitors (MG63.3 OS cell line [1]; MG63.3, selectivity = ratio of 3D to 2D % inhibition at the same dose, Class I, Class II, pan-HDAC): highest 3D activity and selectivity for ME
3D growth inhibition and selectivity for ME at selected dose (MG63.3 OS cell line [1]; givinostat 400 nM, quisinostat 10 nM, MG63.3 3D BME): significant 3D growth inhibition and selectivity for ME
doses exhibiting cytotoxicity on 2D growth (MG63.3 OS cell line [2]; human): ≥ 80 nM

CO[C@H]1C[C@@H]2CC[C@@H](C)[C@@](O)(O2)C(=O)C(=O)N2CCCC[C@H]2C(=O)O[C@H]([C@H](C)C[C@@H]2CC[C@@H](O)[C@H](OC)C2)CC(=O)[C@H](C)/C=C(\C)[C@@H](O)[C@@H](OC)C(=O)[C@H](C)C[C@H](C)/C=C/C=C/C=C/1C [rapamycin]
minimal effective concentration (MG63.3 OS cell line [1]; [8]): 0.0005 µM
lowest dose leading to appreciable inhibition of 3D growth (MG63.3 OS cells): 1 nM
doses leading to significant cytotoxicity on 2D growth (K7M2 OS cell line [3]; K7M2, MTT, 72 h, tested 15 nM-100 μM): ≥ 10 PM
whole blood trough concentration mean ([4]; months 4 through 12): 19 ng/mL
whole blood trough concentration range ([4]; months 4 through 12): 14 to 22 ng/mL
whole blood trough concentration mean ([4]; year 3): 16 ng/mL
whole blood trough concentration range ([4]; year 3): 11 to 22 ng/mL

CNC(=O)c1cc(Oc2ccc(NC(=O)Nc3ccc(Cl)c(C(F)(F)F)c3)c(F)c2)ccn1 [regorafenib]
inhibition at 1 µM (MG63.3 OS cell line [1]; Homo sapiens, MG-63.3, 144 h, MG63.3, Day 6 growth by MTS, P<0.005): ~20%
effect on metastatic phenotype / 3D growth in 3D BME (words) (MG63.3 OS cell line [1]; MG63.3, Day 6 MTS, at or below 1 μM): consistently inhibit 3D growth across both cell lines
inhibition in 3D BME at 100 nM (MG63.3 OS cell line [1]; MG63.3, Day 6 growth by MTS): Significant inhibition was not seen
effect on cell number in 2D monolayer (MG63.3 OS cell line [2]; MG63.3, MTT, exposures up to 1 μM / assessed exposures): no effect on remaining cell number
effect on metastatic phenotype / 3D growth in 3D BME (words) (K7M2 OS cell line [5]; K7M2, Day 6 MTS, at or below 1 μM): consistently inhibit 3D growth across both cell lines
inhibition in 3D BME at 100 nM (K7M2 OS cell line [5]; K7M2, Day 6 growth by MTS): Significant inhibition was not seen
inhibition at 1 µM (K7M2 OS cell line [5]; Mus musculus, 144 h, K7M2, Day 6 growth by MTS, P<0.005): ~20%
non-cytotoxic drug exposures in 2D (K7M2 OS cell line [3]): below 1 μM

C=CCNc1c(O)cc2c(O)c1C[C@@H](C)C[C@H](OC)[C@H](O)[C@@H](C)/C=C(\C)[C@H](OC(N)=O)[C@@H](OC)/C=C\C=C(/C)C(=O)N2 [retaspimycin]
minimal effective concentration (MG63.3 OS cell line [1]; [6]): 0.2 µM
doses exhibiting cytotoxicity on 2D growth (MG63.3 OS cell line [2]; MG63.3, MTT, replicates=3): > 400 nM

CC(C)n1nc(-c2ccc3oc(N)nc3c2)c2c(N)ncnc21 [sapanisertib]
minimal effective concentration (MG63.3 OS cell line [1]; [6]): 0.001 µM
doses exhibiting cytotoxicity on 2D growth (MG63.3 OS cell line [2]; human): > 8 nM

CN1CCN(CCOc2cc(OC3CCOCC3)c3c(Nc4c(Cl)ccc5c4OCO5)ncnc3c2)CC1 [saracatinib]
non-cytotoxic drug exposures in 2D (K7M2 OS cell line [3]): below 1 μM

Cn1ncnc1[C@H]1c2n[nH]c(=O)c3cc(F)cc(c23)N[C@@H]1c1ccc(F)cc1 [talazoparib]
minimal effective concentration (MG63.3 OS cell line [1]; [6]): 0.0125 µM
activity on 3D BME compared with 2D (MG63.3 OS cell line [1]): much stronger activity on 3D BME at significantly lower doses
doses exhibiting cytotoxicity on 2D growth (MG63.3 OS cell line [2]; human): > 100 nM

C=CCNC1=C2C[C@@H](C)C[C@H](OC)[C@H](O)[C@@H](C)/C=C(\C)[C@H](OC(N)=O)[C@@H](OC)/C=C\C=C(/C)C(=O)NC(=CC1=O)C2=O [tanespimycin]
minimal effective concentration (MG63.3 OS cell line [1]; Homo sapiens, MG-63.3, read-out: lowest dose leading to appreciable inhibition of 3D growth): 0.025 µM
doses exhibiting cytotoxicity on 2D growth (MG63.3 OS cell line [2]; MG63.3, MTT, replicates=3): > 25 nM

O=C(Cc1cccc(OC(F)(F)F)c1)Nc1ccc(CCCCc2nnc(NC(=O)Cc3ccccn3)s2)nn1 [telaglenastat]
minimal effective concentration (MG63.3 OS cell line [1]; [6]): 0.001 µM
activity on 3D BME compared with 2D (MG63.3 OS cell line [1]): much stronger activity on 3D BME at significantly lower doses; also recorded: more active in 3D than in 2D
minimal effective concentration (MG63.3 OS cell line [1]; [8]): 0.001 µM
growth in cell number in 3D BME at highest 2D inactive dose (MG63.3 OS cell line [1]; telaglenastat 100 nM, MG63.3): 10%
doses exhibiting cytotoxicity on 2D growth (MG63.3 OS cell line [2]; human): > 100 nM
effect in 2D at the same dose (MG63.3 OS cell line [2]; telaglenastat 100 nM, MG63.3): no statistically significant inhibition; also recorded: inactive

CC(C)[C@]12O[C@H]1[C@@H]1O[C@]13[C@]1(O[C@H]1C[C@H]1C4=C(CC[C@@]13C)C(=O)OC4)[C@@H]2O [triptolide]
lowest dose leading to complete inhibition of 3D growth (MG63.3 OS cell line [1]; [7]): 1 nM
cytotoxicity on 2D growth (MG63.3 OS cell line [2]): cytotoxicity at all doses tested

CNC(=O)c1cccc(-c2ccc3c(N4CCOC[C@@H]4C)nc(N4CCOC[C@@H]4C)nc3n2)c1 [vistusertib]
minimal effective concentration (MG63.3 OS cell line [1]; [6]): 0.1 µM
activity on 3D BME compared with 2D (MG63.3 OS cell line [1]): slightly stronger activity on 3D BME at 100 nM
doses exhibiting cytotoxicity on 2D growth (MG63.3 OS cell line [2]; human): > 0.64 nM
